Molecular target: T1, HGFR (Homo sapiens, UniProt P08581)
T1 construct: purchased Upstate 14-526
Assay: HGFR continuous-coupled spectrophotometric assay
Type: biochemical
Conditions: for inhibition at 1 µM: Table 6, percent c-MET inhibition at 1 μM, read-out: % inhibition; for inhibition at 0.05 µM: Table 5, percent c-MET inhibition at 50 nM; for I(%): Table 3, Ki(μM) or I(%), test concentration not given

T1 sequence (P08581 974-1390 limits assumed): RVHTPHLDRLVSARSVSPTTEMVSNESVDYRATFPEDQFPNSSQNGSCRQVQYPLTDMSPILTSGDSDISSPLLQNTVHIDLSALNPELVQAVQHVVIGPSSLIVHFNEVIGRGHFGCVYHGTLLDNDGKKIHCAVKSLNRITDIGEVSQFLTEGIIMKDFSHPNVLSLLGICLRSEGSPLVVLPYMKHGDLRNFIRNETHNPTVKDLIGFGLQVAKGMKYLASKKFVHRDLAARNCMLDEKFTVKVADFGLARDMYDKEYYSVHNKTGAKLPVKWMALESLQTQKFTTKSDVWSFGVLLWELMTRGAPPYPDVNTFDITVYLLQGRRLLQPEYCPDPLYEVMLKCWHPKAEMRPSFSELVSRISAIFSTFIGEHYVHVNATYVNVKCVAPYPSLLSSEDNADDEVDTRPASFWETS

| inhibition at 1 µM [%] | % inhibition | SMILES | further results |
| --- | --- | --- | --- |
| 29 |  | Nc1ncc(C(=O)NCCc2c[nH]cn2)cc1OCc1c(Cl)cccc1Cl |  |
|  |  | CC(Oc1cc(-c2ccc(C(=O)N[C@H](CO)C(C)C)cc2)cnc1N)c1c(Cl)ccc(F)c1Cl (stereo partly drawn) | inhibition at 0.05 µM: 74% |
| 19 |  | Nc1ncc(C(=O)N2CCCC2c2ccncc2)cc1OCc1c(Cl)cccc1Cl (stereo not drawn) |  |
|  | % inhibition = 19 | Nc1ncc(-c2ccc(C(=O)N3CCC(N4CCCC4)CC3)cc2)cc1OCc1ccc(F)c(F)c1F |  |
|  |  | C[C@@H]1CN(C(=O)c2ccc(-c3cnc4c(c3)OC(c3ccccc3)C(=O)N4)cc2)C[C@H](C)N1 (stereo partly drawn) [Example I-618, 7-(4-(3,5-Dimethyl-piperazine-1-carbonyl)-phenyl]-2-phenyl-4H-pyrido[3,2-b](1,4]oxazin-3-one] | I(%): 0% |
|  |  | CCC(CO)NC(=O)c1ccc(-c2cnc(N)c(OC(C)c3c(Cl)ccc(F)c3Cl)c2)cc1 (stereo not drawn) | inhibition at 0.05 µM: 73% |
|  | % inhibition = 59 | Nc1ncc(-c2ccc(C(=O)N3CCC(N4CCCC4)CC3)cc2)cc1OCc1ccc2ccccc2c1Br |  |
|  |  | CC(Oc1cc(-c2ccc(C(=O)NC(C)C(O)c3ccccc3)cc2)cnc1N)c1c(Cl)ccc(F)c1Cl (stereo not drawn) | inhibition at 0.05 µM: 69% |
| 19 |  | Cc1cc(CCC2COC3(CCN(C(=O)c4cnc(N)c(OCc5c(Cl)cccc5Cl)c4)CC3)C2)no1 (stereo not drawn) |  |
|  |  | CC(Oc1cc(-c2ccc(C(=O)NC[C@@H](C)O)cc2)cnc1N)c1c(Cl)ccc(F)c1Cl (stereo partly drawn) | inhibition at 0.05 µM: 79% |
|  |  | CC1CN(C(=O)c2ccc(-c3cnc(N)c(OCc4c(Cl)cccc4Cl)c3)cc2)CC(C)N1 (stereo not drawn) [Example I-634, {4-[6-Amino-5-(2,6-dichloro-benzyloxy)-pyridin-3-yl]-phenyl}-(3,5-dimethyl-piperazin-1-yl)-methanone] | I(%): 10% |
|  |  | CC(NC(=O)c1ccc(-c2cnc(N)c(OC(C)c3c(Cl)ccc(F)c3Cl)c2)cc1)c1ccc(F)cc1 (stereo not drawn) | inhibition at 0.05 µM: 56% |
| 45 |  | CCCOCCNC(=O)c1cnc(N)c(OCc2c(Cl)cccc2Cl)c1 |  |
| 3 |  | Cc1noc([C@H]2CC[C@H](CNC(=O)c3cnc(N)c(OCc4c(Cl)cccc4Cl)c3)CC2)n1 |  |
|  | % inhibition = 24 | Nc1ncc(-c2ccc(C(=O)N3CCC(N4CCCC4)CC3)cc2)cc1OCc1cccc(Br)c1 |  |
|  | % inhibition = 18 | Nc1ncc(-c2ccc(C(=O)N3CCC(N4CCCC4)CC3)cc2)cc1OCc1ccc(F)cc1F |  |
| 27 |  | Nc1ncc(C(=O)N2CCC3(CCNC3=O)CC2)cc1OCc1c(Cl)cccc1Cl |  |
|  | % inhibition = 8 | N#Cc1ccc(COc2cc(-c3ccc(C(=O)N4CCC(N5CCCC5)CC4)cc3)cnc2N)cc1 |  |
|  |  | CC(Oc1cc(CNC2CCN(Cc3ccccc3)C2)cnc1N)c1c(Cl)ccc(F)c1Cl (stereo not drawn) [Example I-608, 5-[(1-Benzyl-pyrrolidin-3-ylamino)-methyl]-3-[1-(2,6-dichloro-3-fluoro-phenyl)-ethoxy]-pyridin-2-ylamine] | I(%): 0% |
| 20 |  | Nc1ncc(C(=O)N2CCCC(N3CCC(CO)CC3)CC2)cc1OCc1c(Cl)cccc1Cl (stereo not drawn) |  |
|  | % inhibition = 15 | Nc1ncc(-c2ccc(C(=O)N3CCC(N4CCCC4)CC3)cc2)cc1OCc1nc(N)c2ccccc2n1 |  |
|  | % inhibition = 9 | CCc1ccn2cc(COc3cc(-c4ccc(C(=O)N5CCC(N6CCCC6)CC5)cc4)cnc3N)nc2c1 |  |
| 17 |  | Nc1ncc(C(=O)NCCc2cccc(O)c2)cc1OCc1c(Cl)cccc1Cl |  |

| inhibition at 1 µM [%] | % inhibition | SMILES | further results |
| --- | --- | --- | --- |
|  | % inhibition = 17 | Nc1ncc(-c2ccc(C(=O)N3CCC(N4CCCC4)CC3)cc2)cc1OCc1ccc(-c2ccnc(Br)n2)cc1 |  |
|  |  | COC(=O)c1cccc(COc2cc(-c3ccc(C(=O)N4CC(C)NC(C)C4)cc3)cnc2N)c1 (stereo not drawn) [Example I-626, 3-{2-Amino-5-[4-(3,5-dimethyl-piperazine-1-carbonyl)-phenyl]-pyridin-3-yloxymethyl}-benzoic acid methyl ester] | I(%): 0% |
| 35 |  | Nc1ncc(C(=O)NC2CCSC2=O)cc1OCc1c(Cl)cccc1Cl (stereo not drawn) |  |
|  | % inhibition = 25 | Nc1ncc(-c2ccc(C(=O)N3CCC(N4CCCC4)CC3)cc2)cc1OCc1ccc(C(F)(F)F)cc1F |  |
| 34 |  | Nc1ncc(C(=O)NCCO)cc1OCc1c(Cl)cccc1Cl |  |
|  | % inhibition = 13 | Nc1ncc(-c2ccc(C(=O)N3CCC(N4CCCC4)CC3)cc2)cc1OCc1cccc(OC(F)(F)F)c1 |  |
|  | % inhibition = 2 | Nc1ncc(-c2ccc(C(=O)N3CCC(N4CCCC4)CC3)cc2)cc1OCc1nc(-c2ccccc2)n[nH]1 |  |
|  | % inhibition = 19 | Nc1ncc(-c2ccc(C(=O)N3CCC(N4CCCC4)CC3)cc2)cc1OCc1ccc(F)c(F)c1 |  |
|  | % inhibition = 11 | Cc1cnccc1COc1cc(-c2ccc(C(=O)N3CCC(N4CCCC4)CC3)cc2)cnc1N |  |
| 33 |  | Cc1cnc(CNC(=O)c2cnc(N)c(OCc3c(Cl)cccc3Cl)c2)cn1 |  |
|  | % inhibition = 14 | Cn1ccnc1COc1cc(-c2ccc(C(=O)N3CCC(N4CCCC4)CC3)cc2)cnc1N |  |
| 43 |  | Nc1ncc(C(=O)N2CCC(CO)CC2)cc1OCc1c(Cl)cccc1Cl |  |
|  | % inhibition = 12 | Nc1ncc(-c2ccc(C(=O)N3CCC(N4CCCC4)CC3)cc2)cc1OCc1cc(F)cc(C(F)(F)F)c1 |  |
| 16 |  | Nc1ncc(C(=O)NCCC2CCC(=O)N2CCc2ccc(O)cc2)cc1OCc1c(Cl)cccc1Cl (stereo not drawn) |  |
|  | % inhibition = 29 | Cc1ccc(F)cc1COc1cc(-c2ccc(C(=O)N3CCC(N4CCCC4)CC3)cc2)cnc1N |  |
| 31 |  | Nc1ncc(C(=O)N2CCn3c(CO)nnc3C2)cc1OCc1c(Cl)cccc1Cl |  |
| 19 |  | CCN1CCCC(NC(=O)c2cnc(N)c(OCc3c(Cl)cccc3Cl)c2)C1 (stereo not drawn) |  |
| 26 |  | Nc1ncc(C(=O)N2CCC3(CC2)CC3C(=O)N2CCCCC2)cc1OCc1c(Cl)cccc1Cl (stereo not drawn) |  |
|  |  | COc1cccc(OC)c1-c1cnc(N)c(OC(C)c2c(Cl)ccc(F)c2Cl)c1 (stereo not drawn) [Example I-558, 3-[1-(2,6-Dichloro-3-fluoro-phenyl)-ethoxy]-5-(2,6-dimethoxy-phenyl)-pyridin-2-ylamine] | I(%): 2% |
| 36 |  | Nc1ncc(C(=O)NCCN2CCN(Cc3ccccc3)CC2)cc1OCc1c(Cl)cccc1Cl |  |
| 27 |  | Nc1ncc(C(=O)NC(CO)Cc2ccc(Cl)cc2)cc1OCc1c(Cl)cccc1Cl (stereo not drawn) |  |
|  | % inhibition = 28 | Nc1ncc(-c2ccc(C(=O)N3CCC(N4CCCC4)CC3)cc2)cc1OCc1ccc(Cl)cc1Br |  |
|  | % inhibition = 24 | Nc1ncc(-c2ccc(C(=O)N3CCC(N4CCCC4)CC3)cc2)cc1OCc1ccc(C(F)(F)F)c(F)c1 |  |

| inhibition at 1 µM [%] | % inhibition | SMILES | further results |
| --- | --- | --- | --- |
|  | % inhibition = 24 | Nc1ncc(-c2ccc(C(=O)N3CCC(N4CCCC4)CC3)cc2)cc1OCc1cccc(F)c1F |  |
|  |  | COc1ccccc1CC(C)N(C)C(=O)c1ccc(-c2cnc(N)c(OC(C)c3c(Cl)ccc(F)c3Cl)c2)cc1 (stereo not drawn) | inhibition at 0.05 µM: 55% |
| 33 |  | Nc1ncc(C(=O)NCc2c(F)cccc2C(F)(F)F)cc1OCc1c(Cl)cccc1Cl |  |
|  | % inhibition = 17 | Cc1cnc2nc(COc3cc(-c4ccc(C(=O)N5CCC(N6CCCC6)CC5)cc4)cnc3N)nn2c1 |  |
| 29 |  | Nc1ncc(C(=O)NCCc2c[nH]c3ccc(O)cc23)cc1OCc1c(Cl)cccc1Cl |  |
|  |  | CC(Oc1cc(-c2ccc(C(=O)N3C[C@@H](C)N[C@@H](C)C3)cc2)cnc1N)c1cccc(C(F)(F)F)c1 (stereo partly drawn) [Example I-617, (4-{6-Amino-5-[1-(3-trifluoromethyl-phenyl)-ethoxy]-pyridin-3-yl]-phenyl)-(3,5-dimethyl-piperazin-1-yl)-methanone] | I(%): 2% |
|  | % inhibition = 11 | Nc1ncc(-c2ccc(C(=O)N3CCC(N4CCCC4)CC3)cc2)cc1OCc1cn2ccccc2n1 |  |
| 30 |  | CC(C)NC(=O)CN1CCN(C(=O)c2cnc(N)c(OCc3c(Cl)cccc3Cl)c2)CC1 |  |
|  | % inhibition = 26 | Nc1ncc(-c2ccc(C(=O)N3CCC(N4CCCC4)CC3)cc2)cc1OCc1ccc(Cl)c(Cl)c1 |  |
|  |  | CC(Oc1cc(-c2nccn2C)cnc1N)c1c(Cl)ccc(F)c1Cl (stereo not drawn) [Example I-652] | I(%): 11% |
|  | % inhibition = 4 | Nc1ncc(-c2ccc(C(=O)N3CCC(N4CCCC4)CC3)cc2)cc1OCc1nc2ccccc2[nH]1 |  |
| 32 |  | Nc1ncc(C(=O)N2CCC3(CC2)CC3C(=O)NCC2CC2)cc1OCc1c(Cl)cccc1Cl (stereo not drawn) |  |
| 18 |  | CN(C)C(CNC(=O)c1cnc(N)c(OCc2c(Cl)cccc2Cl)c1)c1cccnc1 (stereo not drawn) |  |
|  | % inhibition = 14 | Cn1nc(C(F)(F)F)c2cc(COc3cc(-c4ccc(C(=O)N5CCC(N6CCCC6)CC5)cc4)cnc3N)sc21 |  |
|  |  | CC(Oc1cc(-c2ccc(C(=O)N[C@H](C)C3CCCCC3)cc2)cnc1N)c1c(Cl)ccc(F)c1Cl (stereo partly drawn) [drawing 1068] | inhibition at 0.05 µM: 60% |
|  |  | CC(Oc1cc(-c2ccc(C(=O)N3CCC(N4CCCC4)CC3)cc2)cnc1N)c1ccc(C(=O)NC2CCN(Cc3ccccc3)CC2)cc1 (stereo not drawn) [Example I-631] | I(%): 3% |
|  |  | CC1CN(C(=O)c2ccc(-c3cnc(N)c(OCc4c(F)cccc4F)c3)cc2)CC(C)N1 (stereo not drawn) [Example I-620, {4-[6-Amino-5-(2,6-difluoro-benzyloxy)-pyridin-3-yl]-phenyl}-(3,5-dimethyl-piperazin-1-yl)-methanone] | I(%): 5% |
| 24 |  | Nc1ncc(C(=O)N2CCN(CC(=O)N3CCCCC3)CC2)cc1OCc1c(Cl)cccc1Cl |  |
|  |  | CC(Oc1cc(-c2ccc(C(=O)N3CCC(N4CCCC4)CC3)cc2)cnc1N)c1ccc(C(=O)NCCCN2CCCC2=O)cc1 (stereo not drawn) [Example I-632, 4-(1-{2-Amino-5-[4-(4-pyrrolidin-1-yl-piperidine-1-carbonyl)-phenyl)-pyridin-3-yloxy}-ethyl)-[3-(2-oxo-pyrrolidin-1-yl)-propyl]-benzamide] | I(%): 0% |
| 5 |  | Nc1ncc(C(=O)N2CCN(c3ccc(Br)cn3)CC2)cc1OCc1c(Cl)cccc1Cl |  |
|  | % inhibition = 13 | Nc1ncc(-c2ccc(C(=O)N3CCC(N4CCCC4)CC3)cc2)cc1OCc1cccc(-c2ccnc(Br)n2)c1 |  |
|  | % inhibition = 15 | COc1cccc(COc2cc(-c3ccc(C(=O)N4CCC(N5CCCC5)CC4)cc3)cnc2N)c1 |  |
|  | % inhibition = 19 | Cc1onc(-c2ccccc2)c1COc1cc(-c2ccc(C(=O)N3CCC(N4CCCC4)CC3)cc2)cnc1N |  |

From US8106197B2, “Aminoheteroaryl compounds as protein kinase inhibitors” (Pfizer Inc., priority 2003, dated 2012)
